# Measured values published in patent publication US20220340597A1, “HEXAHYDRO-1H-PYRAZINO[1,2-A]PYRAZINE COMPOUNDS FOR THE TREATMENT OF AUTOIMMUNE DISEASE” (Hoffmann-La Roche Inc., priority 2019, published 2022).
# Molecular target: T1, hERG channel (Homo sapiens, UniProt Q12809)
# T1 construct: expressed in transfected cells; host or cells: CHO (Chinese hamster ovary), CHOhERG
# Test: hERG channel inhibition assay (patch-clamp, CHOhERG cells)
# Assay type: cell-based
# Conditions: for IC50 / IC20: CHOhERG cells, whole-cell patch-clamp; for IC20: human, CHO cells stably expressing hERG (CHOhERG); for hERG IC20/TLR7 IC50 / hERG IC20/TLR8 IC50 / hERG IC20/TLR9 IC50: safety ratio
# Protocol: hERG Channel Inhibition Assay:
# The hERG K^+ channels were cloned in humans and stably expressed in a CHO (Chinese hamster ovary) cell line. CHOhERG cells were used for patch-clamp (voltage-clamp, whole-cell) experiments. Cells were stimulated by a voltage pattern to activate hERG channels and conduct IKhERG currents (rapid delayed outward rectifier potassium current of the hERG channel). After the cells were stabilized for a few minutes, the amplitude and kinetics of IKhERG were recorded at a stimulation frequency of 0.1 Hz (6 bpm). Thereafter, the test compound was added to the preparation at increasing concentrations. For each concentration, an attempt was made to reach a steady-state effect, usually, this was achieved within 3-10 min at which time the next highest concentration was applied. The amplitude and kinetics of IKhERG are recorded in each concentration of the drug which were compared to the control values (taken as 100%). (references: Redfern W S, Carlsson L, Davis A S, Lynch W G, MacKenzie I, Palethorpe S, Siegl P K, Strang I, Sullivan A T, Wallis R, Camm A J, Hammond T G. 2003; Relationships between preclinical cardiac electrophysiology, clinical QT interval prolongation and torsade de pointes for a broad range of drugs: evidence for a provisional safety margin in drug development. Cardiovasc. Res. 58:32-45, Sanguinetti M C, Tristani-Firouzi M. 2006; hERG potassium channels and cardiac arrhythmia. Nature 440:463-469, Webster R, Leishman D, Walker D. 2002; Towards a drug concentration effect relationship for QT prolongation and torsades de pointes. Curr. Opin. Drug Discov. Devel. 5:116-26).
# The calculation of hERG IC20/TLR7/8/9 IC50 below serves as early selectivity index to assess hERG liability.
# T1 sequence (Q12809 whole entry): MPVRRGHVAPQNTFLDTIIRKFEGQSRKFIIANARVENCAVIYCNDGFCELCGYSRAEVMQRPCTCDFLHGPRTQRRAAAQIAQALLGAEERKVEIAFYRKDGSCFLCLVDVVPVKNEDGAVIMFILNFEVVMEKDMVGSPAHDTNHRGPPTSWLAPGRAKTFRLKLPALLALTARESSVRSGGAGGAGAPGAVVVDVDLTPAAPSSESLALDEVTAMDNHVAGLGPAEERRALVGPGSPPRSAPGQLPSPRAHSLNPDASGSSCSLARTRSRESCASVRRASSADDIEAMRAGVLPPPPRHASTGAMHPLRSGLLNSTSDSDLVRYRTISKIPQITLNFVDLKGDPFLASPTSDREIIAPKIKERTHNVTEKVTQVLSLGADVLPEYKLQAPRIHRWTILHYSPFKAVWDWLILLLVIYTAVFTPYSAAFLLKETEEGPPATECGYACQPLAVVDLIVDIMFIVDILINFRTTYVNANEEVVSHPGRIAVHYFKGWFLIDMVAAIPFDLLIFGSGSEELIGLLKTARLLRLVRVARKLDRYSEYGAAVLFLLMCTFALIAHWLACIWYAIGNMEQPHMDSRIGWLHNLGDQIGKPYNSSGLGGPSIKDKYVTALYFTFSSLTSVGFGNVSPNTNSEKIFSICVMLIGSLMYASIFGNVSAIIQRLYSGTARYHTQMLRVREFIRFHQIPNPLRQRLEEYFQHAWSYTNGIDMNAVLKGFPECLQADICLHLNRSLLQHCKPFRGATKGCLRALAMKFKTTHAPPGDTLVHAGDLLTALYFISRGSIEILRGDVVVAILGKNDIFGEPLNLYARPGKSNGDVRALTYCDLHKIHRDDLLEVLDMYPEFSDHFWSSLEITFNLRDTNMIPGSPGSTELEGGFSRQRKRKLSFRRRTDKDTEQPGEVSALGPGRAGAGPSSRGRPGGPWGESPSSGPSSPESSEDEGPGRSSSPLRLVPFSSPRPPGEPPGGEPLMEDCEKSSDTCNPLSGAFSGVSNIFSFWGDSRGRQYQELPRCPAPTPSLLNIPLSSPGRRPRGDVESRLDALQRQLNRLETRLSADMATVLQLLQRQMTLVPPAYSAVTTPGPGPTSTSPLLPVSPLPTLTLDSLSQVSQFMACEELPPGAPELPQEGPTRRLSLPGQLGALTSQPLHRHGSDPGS
SMILES,IC50,IC20,hERG IC20/TLR7 IC50,hERG IC20/TLR8 IC50,hERG IC20/TLR9 IC50
"C[C@@H]1CN(c2ccc(C#N)c3ncccc23)C[C@@H]2CN(Cc3ccc(N4CCNCC4)nc3)CCN21 [Example 8, 5-[(4R,9aS)-4-methyl-8-[(6-piperazin-1-yl-3-pyridyl)methyl]-3,4,6,7,9,9a-hexahydro-1H-pyrazino[1,2-a]pyrazin-2-yl]quinoline-8-carbonitrile]",> 20 µM,8.63 µM,392,166,210
"C[C@@H]1CN(c2ccc(C#N)c3ncccc23)C[C@@H]2CN(CCc3ccc(N4CC5(CN(C)C5)C4)nc3)CCN21 [Example 22, 5-[(4R,9aS)-4-methyl-8-[2-[6-(6-methyl-2,6-diazaspiro[3.3]heptan-2-yl)-3-pyridyl]ethyl]-3,4,6,7,9,9a-hexahydro-1H-pyrazino[1,2-a]pyrazin-2-yl]quinoline-8-carbonitrile]",> 20 µM,> 10 µM,>385,>172,>213
"CO[C@H]1CN(c2ccc(CCN3CCN4[C@@H](C3)CN(c3ccc(C#N)c5ncccc35)C[C@H]4C)cn2)C[C@@H]1N [Example 25, 5-[(4R,9aS)-8-[2-[6-[(3S,4S)-3-amino-4-methoxy-pyrrolidin-1-yl]-3-pyridyl]ethyl]-4-methyl-3,4,6,7,9,9a-hexahydro-1H-pyrazino[1,2-a]pyrazin-2-yl]quinoline-8-carbonitrile]",> 20 µM,> 10 µM,>769,>400,>156
"C[C@@H]1CN(c2ccc(C#N)c3ncccc23)C[C@@H]2CN(c3nccc(N4CCNCC4)n3)CCN21 [Example 30, 5-[(4R,9aR)-4-methyl-8-(4-piperazin-1-ylpyrimidin-2-yl)-3,4,6,7,9,9a-hexahydro-1H-pyrazino[1,2-a]pyrazin-2-yl]quinoline-8-carbonitrile]",> 10 µM,4.53 µM,283,216,63
"C[C@@H]1CN(c2ccc(C#N)c3ncccc23)C[C@@H]2CN(c3cc(N4CCNCC4)ccn3)CCN21 [Example 34, 5-[(4R,9aR)-4-methyl-8-(4-piperazin-1-yl-2-pyridyl)-3,4,6,7,9,9a-hexahydro-1H-pyrazino[1,2-a]pyrazin-2-yl]quinoline-8-carbonitrile]",> 10 µM,4.74 µM,237,339,113
"CO[C@@H]1CN(c2nccc(N3CCN4[C@@H](C3)CN(c3ccc(C#N)c5ncccc35)C[C@H]4C)n2)C[C@H]1N [Example 36, 5-[(4R,9aR)-8-[2-[(3R,4R)-3-amino-4-methoxy-pyrrolidin-1-yl]pyrimidin-4-yl]-4-methyl-3,4,6,7,9,9a-hexahydro-1H-pyrazino[1,2-a]pyrazin-2-yl]quinoline-8-carbonitrile]",> 20 µM,5.6 µM,431,373,82
"CO[C@@H]1CN(c2ccnc(N3CCN4[C@@H](C3)CN(c3ccc(C#N)c5ncccc35)C[C@H]4C)n2)C[C@H]1N [Example 37, 5-[(4R,9aR)-8-[4-[(3R,4R)-3-amino-4-methoxy-pyrrolidin-1-yl]pyrimidin-2-yl]-4-methyl-3,4,6,7,9,9a-hexahydro-1H-pyrazino[1,2-a]pyrazin-2-yl]quinoline-8-carbonitrile]",> 10 µM,4.5 µM,214,173,73
"Cc1cc(N2CCNCC2)ncc1N1CCN2CCN(c3ccc(C#N)c4ncccc34)CC2C1 (stereo not shown) [Example 38, 5-[2-(4-methyl-6-piperazin-1-yl-3-pyridyl)-3,4,6,7,9,9a-hexahydro-1H-pyrazino[1,2-a]pyrazin-8-yl]quinoline-8-carbonitrile]",> 20 µM,> 10 µM,>5000,>1250,>108
"C[C@@H]1CN(c2ccc(C#N)c3ncccc23)C[C@@H]2CN(c3nccc(N4CC(N)C4)n3)CCN21 [Example 39, 5-[(4R,9aR)-8-[4-(3-aminoazetidin-1-yl)pyrimidin-2-yl]-4-methyl-3,4,6,7,9,9a-hexahydro-1H-pyrazino[1,2-a]pyrazin-2-yl]quinoline-8-carbonitrile]",> 10 µM,5 µM,238,294,53
"C[C@@H]1CN(c2ccc(C#N)c3ncccc23)C[C@@H]2CN(c3ccnc(N4CC(N)C4)c3)CCN21 [Example 41, 5-[(4R,9aS)-8-[2-(3-aminoazetidin-1-yl)-4-pyridyl]-4-methyl-3,4,6,7,9,9a-hexahydro-1H-pyrazino[1,2-a]pyrazin-2-yl]quinoline-8-carbonitrile]",> 20 µM,9.64 µM,275,1377,214
"CO[C@@H]1CN(c2nc(C)cc(N3CCN4[C@@H](C3)CN(c3ccc(C#N)c5ncccc35)C[C@H]4C)n2)C[C@H]1N [Example 45, 5-[(4R,9aR)-8-[2-[(3R,4R)-3-amino-4-methoxy-pyrrolidin-1-yl]-6-methyl-pyrimidin-4-yl]-4-methyl-3,4,6,7,9,9a-hexahydro-1H-pyrazino[1,2-a]pyrazin-2-yl]quinoline-8-carbonitrile]",> 20 µM,> 10 µM,>556,>357,>124
"Cc1cc(N2CCN3[C@@H](C2)CN(c2ccc(C#N)c4ncccc24)C[C@H]3C)nc(N2CC(C)(N)C2)n1 [Example 55, 5-[(4R,9aR)-8-[2-(3-amino-3-methyl-azetidin-1-yl)-6-methyl-pyrimidin-4-yl]-4-methyl-3,4,6,7,9,9a-hexahydro-1H-pyrazino[1,2-a]pyrazin-2-yl]quinoline-8-carbonitrile]",> 20 µM,> 10 µM,>680,>249,>209
"C[C@@H]1CN(c2ccc(C#N)n3ncc(F)c23)C[C@@H]2CN(Cc3ccc4c(c3)CNCC4)CCN21 [Example 69, 4-[(4R,9aS)-4-methyl-8-(1,2,3,4-tetrahydroisoquinolin-7-ylmethyl)-3,4,6,7,9,9a-hexahydro-1H-pyrazino[1,2-a]pyrazin-2-yl]-3-fluoro-pyrazolo[1,5-a]pyridine-7-carbonitrile]",> 20 µM,> 10 µM,>152,>192,>70
"[2H]c1ccc2c(N3C[C@@H]4CN(Cc5ccc(N6CC(C)(N)C6)nc5C)CCN4[C@H](C)C3)ccc(C#N)c2n1 [Example 79, 5-[(4R,9aS)-8-[[6-(3-amino-3-methyl-azetidin-1-yl)-2-methyl-3-pyridyl]methyl]-4-methyl-3,4,6,7,9,9a-hexahydro-1H-pyrazino[1,2-a]pyrazin-2-yl]-2-deuterio-quinoline-8-carbonitrile]",> 20 µM,> 10 µM,>526,>1666,>217
